Results as given in patent publication US6399356B1, “Process and agent for sanitation of contaminations caused by viruses” (priority 1998, dated 2002).

Experiments:
[1] = system: reo-3-virus; test: Sanitization of a DEAE-Sephadex chromatography column contaminated with virus
Description: 1 g of DEAE-Sephadex A-50 (pre-swollen) was added as a slurry in 20 ml of PBS (pH 7.2) to 500 ml of a reo-3-virus-containing aqueous solution (cell culture supernatant with 5% FCS) having a virus titer (CCID50) of 5.5 log10. After stirring for 30 min at approximately 20° C., all the material was transferred to a chromatography column and, after sedimentation of the resin, the column was emptied. The resin was then washed with 150 ml of wash buffer (0.2 M NaCl, pH 6.0 by means of KH2PO4/NaOH) and finally eluted with elution buffer (2.0 M NaCl, pH 8.0 by means of KH2PO4/NaOH). For sanitization, the column was washed (in countercurrent) with 3 column volumes of a wash buffer containing carvacrol solution (1:2000) and allowed to stand overnight at approximately 20° C. under this carvacrol solution. The column was then regenerated with wash buffer.

[2] = system: non-cytopathogenic pestivirus strain in MDBK cell culture; test: Sanitization of a cell culture: titration of cytopathogenic BVDV strain on treated MDBK indicator cells; assay type: cell-based
Description: The infection of the cell culture can be followed, inter alia, by the (fetal) calf serum necessary for cell culture.
An MDBK cell culture which is infected with a non-cytopathogenic pestivirus strain is passaged as is customary (splitting rate 1:5; Eagles Minimal Essential Medium containing 5% FCS) and two cell culture flasks are prepared. One cell culture flask remains untreated, the second cell culture flask is treated with thymol (1:50,000). Both cell culture flasks are passaged weekly, the treatment of the cell culture being carried out for 3 passages. After one passage without treatment, cells from the respective cell culture flasks are inoculated into microtiter plates and a titration (end point dilution method) of a cytopathogenic BVDV strain (Denmark) is carried out on the respective indicator cells. The cytopathogenic effect is evaluated as an indication of virus replication and the virus titer is calculated (Spaerman-Kärber method; Table 2).

[3] = carvacrol solution (1:2000) after about 16 hours' incubation at approximately 20° C. (12 ml)
[4] = wash buffer after sanitation with carvacrol, 2nd column volume (12 ml)

SMILES	Virus load (Titer × volume) [1, 3]	Virus titer [1, 3]	Virus titer ([1]; carvacrol solution (1:2000) in wash buffer, 1st column volume (12 ml), titer determined immediately after obtaining the sample, starting material 5.5)	Virus load (Titer × volume) ([1]; carvacrol solution (1:2000), 1st column volume (12 ml), determined immediately after obtaining the sample, starting material 8.2)	Inactivation of reo-3-virus on the column ([1]; sanitization of DEAE-Sephadex column with carvacrol solution (1:2000) overnight)	Virus load (Titer × volume) [1, 4]	Virus titer [1, 4]	Virus titer of cytopathogenic BVDV strain (Denmark) on the indicator cells ([2]; MDBK cells infected with non-cytopathogenic pestivirus, 3 passages treated with thymol (1:50,000), then one passage without treatment, untreated 3.9, starting culture 4.3)	Inactivation of non-cytopathogenic pestivirus in MDBK cells ([2]; thymol (1:50,000), 3 passages)
Cc1ccc(C(C)C)cc1O [Carvacrol solution, carvacrol]	≦2.6 [log10]	≦1.5 CCID50/ml[log10]	4.2 CCID50/ml[log10]	5.3 [log10]	complete inactivation of reo-3-virus below the detection limit	≦2.6 [log10]	≦1.5 CCID50/ml[log10]		
Cc1ccc(C(C)C)c(O)c1 [thymol]								7.6 (CCID50ml) [log10]	the non-cytopathogenic pestivirus is inactivated
